Data published in ChEMBL document CHEMBL4819047, “Discovery of a new class of multi-target heterocycle piperidine derivatives as potential antipsychotics with pro-cognitive effect” (Bioorg Med Chem Lett, 2021).

Key:
D(2) dopamine receptor [1] = biological target: T1, D(2) dopamine receptor (Homo sapiens, UniProt P14416)
Description: Binding affinity to dopamine D2 receptor (unknown origin)

[2] = biological target: T2, 5-hydroxytryptamine receptor 2A (Homo sapiens, UniProt P28223)
Histamine H1 receptor = Histamine H1 receptor (Homo sapiens, UniProt P35367); assay type: ADME
Description: Binding affinity to histamine H1 receptor (unknown origin)

D(3) dopamine receptor = D(3) dopamine receptor (Homo sapiens, UniProt P35462)
Description: Binding affinity to dopamine D3 receptor (unknown origin)

[3] = biological target: T3, 5-hydroxytryptamine receptor 1A (Homo sapiens, UniProt P08908)
T3 sequence (P08908 whole entry): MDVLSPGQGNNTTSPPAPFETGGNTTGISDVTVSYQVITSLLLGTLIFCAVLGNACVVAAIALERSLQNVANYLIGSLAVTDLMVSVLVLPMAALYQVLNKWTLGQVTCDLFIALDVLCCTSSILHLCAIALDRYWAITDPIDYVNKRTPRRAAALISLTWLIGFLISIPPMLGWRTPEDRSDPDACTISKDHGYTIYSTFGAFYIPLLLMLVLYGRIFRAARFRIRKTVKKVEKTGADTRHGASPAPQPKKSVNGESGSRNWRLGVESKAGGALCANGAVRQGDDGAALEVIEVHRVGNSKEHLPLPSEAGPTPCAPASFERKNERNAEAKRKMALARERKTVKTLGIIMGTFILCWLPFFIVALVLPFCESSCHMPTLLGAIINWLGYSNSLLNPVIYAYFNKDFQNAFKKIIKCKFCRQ

[4] = biological target: T4, 5-hydroxytryptamine receptor 2C (Homo sapiens, UniProt P28335)
T4 sequence (P28335 whole entry): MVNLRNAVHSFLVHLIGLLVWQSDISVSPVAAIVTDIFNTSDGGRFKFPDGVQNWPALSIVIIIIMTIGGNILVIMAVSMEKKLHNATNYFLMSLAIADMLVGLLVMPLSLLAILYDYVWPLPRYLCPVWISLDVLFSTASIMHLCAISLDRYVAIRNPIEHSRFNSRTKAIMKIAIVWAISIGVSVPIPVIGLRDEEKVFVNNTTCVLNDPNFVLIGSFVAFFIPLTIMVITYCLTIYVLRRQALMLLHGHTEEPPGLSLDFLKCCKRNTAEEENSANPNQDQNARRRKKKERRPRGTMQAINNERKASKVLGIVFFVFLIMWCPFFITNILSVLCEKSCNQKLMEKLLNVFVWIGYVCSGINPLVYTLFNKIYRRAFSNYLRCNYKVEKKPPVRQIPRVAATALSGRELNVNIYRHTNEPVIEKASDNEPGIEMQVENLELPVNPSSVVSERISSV

[5] = biological target: 5-hydroxytryptamine receptor 6 (Homo sapiens, UniProt P50406)
[6] = biological target: T5, Alpha-1A adrenergic receptor (Homo sapiens, UniProt P35348)
T5 sequence (P35348 whole entry): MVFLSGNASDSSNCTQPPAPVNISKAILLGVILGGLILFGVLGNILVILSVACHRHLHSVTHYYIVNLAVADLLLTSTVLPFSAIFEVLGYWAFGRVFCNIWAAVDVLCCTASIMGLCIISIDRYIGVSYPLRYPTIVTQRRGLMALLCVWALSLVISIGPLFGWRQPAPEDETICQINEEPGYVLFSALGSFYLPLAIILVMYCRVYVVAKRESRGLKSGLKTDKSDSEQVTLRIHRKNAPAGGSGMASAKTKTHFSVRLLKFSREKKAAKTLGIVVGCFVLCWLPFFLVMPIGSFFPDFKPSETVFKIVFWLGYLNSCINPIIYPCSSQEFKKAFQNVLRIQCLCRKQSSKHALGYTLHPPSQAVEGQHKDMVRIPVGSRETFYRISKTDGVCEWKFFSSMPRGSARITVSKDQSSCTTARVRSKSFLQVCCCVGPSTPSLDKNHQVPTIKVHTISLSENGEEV
Description: Binding affinity to alpha1 adrenoceptor (unknown origin)

Histamine H3 receptor = Histamine H3 receptor (Homo sapiens, UniProt Q9Y5N1)
Description: Binding affinity to histamine H3 receptor (unknown origin)

[7] = biological target: Voltage-gated inwardly rectifying potassium channel KCNH2 (Homo sapiens, UniProt Q12809)
Description: Inhibition of human ERG by automated patch method relative to control

D(2) dopamine receptor [8] = biological target: T1, D(2) dopamine receptor; assay: Antagonist activity at D2 receptor (unknown origin); assay type: functional
[9] = biological target: T3, 5-hydroxytryptamine receptor 1A; assay: Antagonist activity at 5-HT1A receptor (unknown origin); assay type: functional
[10] = biological target: T2, 5-hydroxytryptamine receptor 2A; assay: Antagonist activity at 5-HT2A receptor (unknown origin); assay type: functional
[11] = Therapeutic index, ratio of ED50 for induction of catalepsy in po dosed mouse to ED50 for antipsychotic activity in po dosed mouse assessed as suppression of apomorphine-induced climbing; assay type: toxicity, organism-based; conditions: in vivo, read-out: Ratio ED50
[12] = Therapeutic index, ratio of ED50 for induction of catalepsy in po dosed mouse to ED50 for antipsychotic activity in po dosed mouse assessed as reduction in MK-801-induced hyperlocomotor activity; assay type: toxicity, organism-based; conditions: in vivo, read-out: Ratio ED50
[13] = mouse, in vivo, po
Description: Induction of catalepsy in po dosed mouse by Horizontal grid and elevated bar test

Mus musculus [14] = species on record: Mus musculus; assay: animal or person; conditions: po
Description: Antipsychotic activity in po dosed mouse assessed as suppression of apomorphine-induced climbing behaviour

Mus musculus [15] = species on record: Mus musculus; assay: animal or person; conditions: po; remark: listed apart in the source
Description: Antipsychotic activity in po dosed mouse assessed as reduction in MK-801-induced hyperlocomotor activity

Rattus norvegicus = species on record: Rattus norvegicus; assay: animal or person; conditions: po
Description: Antipsychotic activity in po dosed rat assessed as suppression in conditioned avoidance response by CAR test

Chain of Histamine H1 receptor (P35367 whole entry): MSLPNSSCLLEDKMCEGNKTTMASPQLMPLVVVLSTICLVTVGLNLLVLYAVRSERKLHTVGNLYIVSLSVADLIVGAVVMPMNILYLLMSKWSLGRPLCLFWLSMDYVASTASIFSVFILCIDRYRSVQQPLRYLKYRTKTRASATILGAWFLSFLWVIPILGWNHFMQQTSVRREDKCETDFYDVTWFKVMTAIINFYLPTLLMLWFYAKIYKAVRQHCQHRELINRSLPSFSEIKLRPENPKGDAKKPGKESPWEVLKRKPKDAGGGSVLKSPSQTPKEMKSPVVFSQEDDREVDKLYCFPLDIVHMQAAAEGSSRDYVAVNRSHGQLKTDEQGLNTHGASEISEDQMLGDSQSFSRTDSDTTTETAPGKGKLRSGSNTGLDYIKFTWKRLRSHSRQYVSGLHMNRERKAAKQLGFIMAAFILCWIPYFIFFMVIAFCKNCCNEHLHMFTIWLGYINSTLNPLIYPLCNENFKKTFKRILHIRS
Chain of Voltage-gated inwardly rectifying potassium channel KCNH2 (Q12809 whole entry): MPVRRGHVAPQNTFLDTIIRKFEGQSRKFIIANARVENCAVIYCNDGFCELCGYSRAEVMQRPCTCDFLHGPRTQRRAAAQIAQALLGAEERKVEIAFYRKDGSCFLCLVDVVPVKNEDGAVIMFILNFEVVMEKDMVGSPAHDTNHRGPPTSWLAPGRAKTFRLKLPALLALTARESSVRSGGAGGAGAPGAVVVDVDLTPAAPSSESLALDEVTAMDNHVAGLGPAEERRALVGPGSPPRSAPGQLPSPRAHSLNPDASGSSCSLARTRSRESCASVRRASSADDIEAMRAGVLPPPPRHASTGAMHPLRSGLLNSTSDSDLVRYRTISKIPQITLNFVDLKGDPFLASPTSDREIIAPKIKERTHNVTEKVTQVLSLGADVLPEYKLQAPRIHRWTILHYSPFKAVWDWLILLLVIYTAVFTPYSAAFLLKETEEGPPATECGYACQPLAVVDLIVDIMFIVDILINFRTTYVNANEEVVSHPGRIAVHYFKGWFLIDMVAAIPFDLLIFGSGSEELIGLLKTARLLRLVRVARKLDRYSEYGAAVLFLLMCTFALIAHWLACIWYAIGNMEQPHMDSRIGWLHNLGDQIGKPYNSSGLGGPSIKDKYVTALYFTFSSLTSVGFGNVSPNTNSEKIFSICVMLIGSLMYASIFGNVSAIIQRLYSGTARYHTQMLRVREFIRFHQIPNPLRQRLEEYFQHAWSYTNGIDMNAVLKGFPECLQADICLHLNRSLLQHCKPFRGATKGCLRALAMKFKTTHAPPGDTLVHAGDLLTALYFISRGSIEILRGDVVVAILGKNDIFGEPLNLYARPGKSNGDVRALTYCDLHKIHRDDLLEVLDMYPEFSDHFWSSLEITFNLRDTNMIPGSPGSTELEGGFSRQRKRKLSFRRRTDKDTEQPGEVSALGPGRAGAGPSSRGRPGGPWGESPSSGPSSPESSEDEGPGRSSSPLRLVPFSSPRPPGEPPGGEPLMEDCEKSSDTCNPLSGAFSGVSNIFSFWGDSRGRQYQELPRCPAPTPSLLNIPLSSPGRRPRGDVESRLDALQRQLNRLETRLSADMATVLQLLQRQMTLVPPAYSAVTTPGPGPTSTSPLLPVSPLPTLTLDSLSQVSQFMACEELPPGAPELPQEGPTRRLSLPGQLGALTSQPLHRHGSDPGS
T2 sequence (P28223 whole entry): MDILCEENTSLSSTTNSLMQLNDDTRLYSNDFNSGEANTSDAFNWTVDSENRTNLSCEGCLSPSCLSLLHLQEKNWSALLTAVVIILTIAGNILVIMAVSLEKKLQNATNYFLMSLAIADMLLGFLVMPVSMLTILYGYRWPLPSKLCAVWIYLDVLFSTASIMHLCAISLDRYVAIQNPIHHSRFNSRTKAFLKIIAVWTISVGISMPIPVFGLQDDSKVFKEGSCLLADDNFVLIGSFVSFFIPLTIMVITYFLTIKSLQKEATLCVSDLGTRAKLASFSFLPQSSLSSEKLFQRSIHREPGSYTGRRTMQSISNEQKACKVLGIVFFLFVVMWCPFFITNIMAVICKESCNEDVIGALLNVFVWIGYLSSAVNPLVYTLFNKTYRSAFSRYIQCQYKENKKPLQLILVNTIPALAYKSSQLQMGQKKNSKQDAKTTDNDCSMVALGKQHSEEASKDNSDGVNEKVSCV
Chain of D(3) dopamine receptor (P35462 whole entry): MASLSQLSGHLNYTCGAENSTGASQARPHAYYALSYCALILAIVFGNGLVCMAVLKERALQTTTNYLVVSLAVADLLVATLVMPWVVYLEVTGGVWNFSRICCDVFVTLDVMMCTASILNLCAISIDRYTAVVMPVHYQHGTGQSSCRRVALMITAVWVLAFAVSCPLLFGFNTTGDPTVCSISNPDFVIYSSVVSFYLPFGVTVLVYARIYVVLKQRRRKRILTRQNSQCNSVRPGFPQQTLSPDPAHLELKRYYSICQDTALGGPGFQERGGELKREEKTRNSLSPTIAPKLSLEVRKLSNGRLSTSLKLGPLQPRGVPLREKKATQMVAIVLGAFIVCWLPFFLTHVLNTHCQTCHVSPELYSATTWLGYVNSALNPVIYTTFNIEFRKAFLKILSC
Chain of Histamine H3 receptor (Q9Y5N1 whole entry): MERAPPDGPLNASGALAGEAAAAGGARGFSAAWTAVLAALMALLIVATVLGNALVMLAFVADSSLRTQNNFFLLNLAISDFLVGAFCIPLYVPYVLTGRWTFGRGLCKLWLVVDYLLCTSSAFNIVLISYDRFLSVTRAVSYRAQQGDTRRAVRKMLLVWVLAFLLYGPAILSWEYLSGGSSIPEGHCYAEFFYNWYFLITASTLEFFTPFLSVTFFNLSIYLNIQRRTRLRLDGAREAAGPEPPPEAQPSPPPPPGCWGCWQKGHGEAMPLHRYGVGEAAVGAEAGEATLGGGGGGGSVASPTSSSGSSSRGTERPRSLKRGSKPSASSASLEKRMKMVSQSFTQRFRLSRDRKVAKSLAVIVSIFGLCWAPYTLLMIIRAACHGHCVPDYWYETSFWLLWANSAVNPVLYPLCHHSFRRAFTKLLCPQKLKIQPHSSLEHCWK
Chain of 5-hydroxytryptamine receptor 6 (P50406 whole entry): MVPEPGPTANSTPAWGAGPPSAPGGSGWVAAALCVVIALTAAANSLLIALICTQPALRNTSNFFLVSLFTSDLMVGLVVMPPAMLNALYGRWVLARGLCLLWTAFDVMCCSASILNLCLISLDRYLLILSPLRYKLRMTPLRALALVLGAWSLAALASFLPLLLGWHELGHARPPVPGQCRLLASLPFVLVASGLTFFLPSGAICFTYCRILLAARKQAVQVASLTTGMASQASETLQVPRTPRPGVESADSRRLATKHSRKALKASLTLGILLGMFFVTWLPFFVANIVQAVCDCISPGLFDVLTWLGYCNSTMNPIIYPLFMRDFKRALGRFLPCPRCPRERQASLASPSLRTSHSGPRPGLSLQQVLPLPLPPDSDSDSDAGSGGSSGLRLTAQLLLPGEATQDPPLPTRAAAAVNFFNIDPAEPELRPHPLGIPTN
T1 sequence (P14416 whole entry): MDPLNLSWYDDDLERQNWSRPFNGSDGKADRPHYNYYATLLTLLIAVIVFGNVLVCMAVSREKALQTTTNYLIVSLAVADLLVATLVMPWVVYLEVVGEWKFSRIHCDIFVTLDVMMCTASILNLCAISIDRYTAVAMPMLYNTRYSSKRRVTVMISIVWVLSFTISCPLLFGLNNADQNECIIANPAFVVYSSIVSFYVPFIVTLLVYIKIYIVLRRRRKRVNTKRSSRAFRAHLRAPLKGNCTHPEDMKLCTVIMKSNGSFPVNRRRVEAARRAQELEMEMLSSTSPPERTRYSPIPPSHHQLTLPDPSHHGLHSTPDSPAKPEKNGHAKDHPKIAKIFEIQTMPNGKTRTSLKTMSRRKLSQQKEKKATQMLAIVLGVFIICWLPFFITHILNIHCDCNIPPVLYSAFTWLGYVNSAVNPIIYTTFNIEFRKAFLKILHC

| Ki (D(2) dopamine receptor [1]) | Ki [2] | Ki [3] | Ki (Histamine H3 receptor) | Compound | other results |
| --- | --- | --- | --- | --- | --- |
| 0.0026 µM | 0.0003 µM | 0.0033 µM | – | Cc1cc(=O)oc2c(Cl)c(OCCCCN3CCC(c4noc5cc(F)ccc45)CC3)ccc12 | Ki (Histamine H1 receptor): 1.13 µM; Ki (D(3) dopamine receptor): 0.0043 µM; Ki [4]: 1.7 µM; Ki [5]: 0.228 µM; Ki [6]: 2.57 µM |
| 0.005 µM | 0.0003 µM | 0.0059 µM | – | O=c1ccc(OCCCN2CCC(c3noc4cc(F)ccc34)CC2)nn1-c1c(F)cccc1F | Ki (Histamine H1 receptor): 2 µM; Ki (D(3) dopamine receptor): 0.0357 µM; Ki [4]: 1.58 µM; Ki [6]: 0.337 µM |
| 0.0029 µM | 0.0007 µM | 0.0086 µM | – | O=C(CCCN1CCC(c2noc3cc(F)ccc23)CC1)c1cc2c3c(c1)CCN3C(=O)CC2 | Ki (Histamine H1 receptor): 0.63 µM; Ki (D(3) dopamine receptor): 0.0017 µM; Ki [4]: 0.616 µM; Ki [5]: 0.0056 µM; Ki [6]: 0.0431 µM |
| 0.0019 µM | 0.0043 µM | 0.0124 µM | 0.0092 µM | CN1CCN(Cc2ccc(OCCCCN3CCC(c4noc5cc(F)ccc45)CC3)cc2)CC1 | Ki (Histamine H1 receptor): 0.642 µM; Ki (D(3) dopamine receptor): 0.0376 µM; Ki [4]: 0.426 µM; Ki [5]: 0.123 µM; Ki [6]: 0.354 µM; IC50 [7]: 1.06 µM |
| 0.0122 µM | 0.0086 µM | 0.0816 µM | 0.0937 µM | Fc1ccc2c(C3CCN(CCCOc4ccc(CN5CCCC5)cc4)CC3)noc2c1 | – |
| 0.0025 µM | 0.0057 µM | 0.105 µM | 0.149 µM | Fc1ccc2c(C3CCN(CCCOc4ccc(CN5CCOCC5)cc4Cl)CC3)noc2c1 | – |
| 0.002 µM | 0.0045 µM | 0.0954 µM | 0.153 µM | Fc1ccc2c(C3CCN(CCCCOc4ccc(CN5CCOCC5)cc4)CC3)noc2c1 | – |
| 0.0126 µM | 0.0115 µM | 0.0893 µM | 0.113 µM | Cc1cc(OCCCN2CCC(c3noc4cc(F)ccc34)CC2)ccc1CN1CCCC1 | – |
| – | 0.0086 µM | 0.0164 µM | 0.271 µM | CN1CCN(CCc2ccc(OCCCN3CCC(c4noc5cc(F)ccc45)CC3)cc2)CC1 | – |
| 0.0103 µM | 0.0065 µM | 0.0906 µM | 0.27 µM | Fc1ccc2c(C3CCN(CCCOc4ccc(CN5CCCCC5)cc4F)CC3)noc2c1 | – |
| 0.0019 µM | 0.0056 µM | 0.1 µM | 0.195 µM | Fc1ccc2c(C3CCN(CCCOc4ccc(CN5CCOCC5)cc4F)CC3)noc2c1 | – |
| 0.0074 µM | 0.0429 µM | 0.0096 µM | 0.0119 µM | CC1CCN(CCc2ccc(OCCCN3CCC(c4noc5cc(F)ccc45)CC3)cc2)CC1 | – |
| 0.0097 µM | 0.0094 µM | 0.0074 µM | 0.0134 µM | Fc1ccc2c(C3CCN(CCCOc4ccc(CCN5CCCCC5)cc4)CC3)noc2c1 | Ki (Histamine H1 receptor): 1.02 µM; Ki (D(3) dopamine receptor): 0.0152 µM; Ki [4]: 0.753 µM; Ki [5]: 0.149 µM; Ki [6]: 0.536 µM; IC50 [7]: 2.29 µM |
| 0.0027 µM | 0.0051 µM | 0.0044 µM | 0.0158 µM | CC1CCN(CCc2ccc(OCCCCN3CCC(c4noc5cc(F)ccc45)CC3)cc2)CC1 | – |
| 0.0054 µM | 0.0063 µM | 0.152 µM | 0.163 µM | Fc1ccc2c(C3CCN(CCCOc4ccc(CN5CCOCC5)c(Cl)c4)CC3)noc2c1 | – |
| 0.0108 µM | 0.0051 µM | 0.0897 µM | 0.27 µM | Fc1ccc2c(C3CCN(CCCOc4ccc(CN5CCCCC5)cc4)CC3)noc2c1 | – |
| 0.0017 µM | 0.0047 µM | 0.0119 µM | 0.0082 µM | CN1CCN(Cc2ccc(OCCCN3CCC(c4noc5cc(F)ccc45)CC3)cc2)CC1 | Ki (Histamine H1 receptor): 0.719 µM; Ki (D(3) dopamine receptor): 0.0232 µM; Ki [4]: 0.573 µM; Ki [5]: 0.0933 µM; Ki [6]: 0.332 µM; IC50 [7]: 1.56 µM |
| 0.0105 µM | 0.0084 µM | 0.0056 µM | – | Fc1ccc2c(C3CCN(CCCOc4ccc(CCN5CCOCC5)cc4)CC3)noc2c1 | Ki (Histamine H1 receptor): 0.968 µM; IC50 (D(2) dopamine receptor [8]): 0.0113 µM; IC50 [9]: 0.247 µM; IC50 [10]: 0.186 µM; Ki [4]: 0.61 µM; Ki [5]: 0.141 µM; Ki [6]: 0.438 µM; IC50 [7]: 2.41 µM |
| 0.0095 µM | 0.009 µM | 0.0677 µM | 0.256 µM | COc1cc(CN2CCCCC2)ccc1OCCCN1CCC(c2noc3cc(F)ccc23)CC1 | – |
| 0.0015 µM | 0.0044 µM | 0.0855 µM | 0.166 µM | Fc1ccc2c(C3CCN(CCCOc4ccc(CN5CCOCC5)cc4)CC3)noc2c1 | – |
| 0.0026 µM | 0.0049 µM | 0.112 µM | 0.147 µM | COc1cc(CN2CCOCC2)ccc1OCCCN1CCC(c2noc3cc(F)ccc23)CC1 | – |
| 0.0116 µM | 0.0062 µM | 0.0921 µM | 0.312 µM | Fc1ccc2c(C3CCN(CCCOc4ccc(CN5CCCCC5)c(F)c4)CC3)noc2c1 | – |
| 0.0062 µM | 0.0108 µM | 0.0779 µM | 0.151 µM | COc1cc(CN2CCCC2)ccc1OCCCN1CCC(c2noc3cc(F)ccc23)CC1 | – |
| 0.0031 µM | 0.0051 µM | 0.1 µM | 0.164 µM | Cc1cc(OCCCN2CCC(c3noc4cc(F)ccc34)CC2)ccc1CN1CCOCC1 | – |
| 0.002 µM | 0.0052 µM | 0.0922 µM | 0.187 µM | Fc1ccc2c(C3CCN(CCCOc4ccc(CN5CCOCC5)c(F)c4)CC3)noc2c1 | – |
| 0.0141 µM | 0.0101 µM | 0.0792 µM | 0.125 µM | Fc1ccc2c(C3CCN(CCCOc4ccc(CN5CCCC5)cc4Cl)CC3)noc2c1 | – |
| – | – | – | – | O=C(CCCN1CCC(O)(c2ccc(Cl)cc2)CC1)c1ccc(F)cc1 [HALOPERIDOL] | selectivity ratio [11]: 3.6; selectivity ratio [12]: 2.9; ED50 [13]: 0.3 mg/kg; ED50 (Mus musculus [14]): 0.09 mg/kg; ED50 (Mus musculus [15]): 0.1 mg/kg |
| – | – | – | – | Cc1nc2n(c(=O)c1CCN1CCC(c3noc4cc(F)ccc34)CC1)CCCC2 [RISPERIDONE] | ED50 [13]: 1.6 mg/kg; ED50 (Mus musculus [14]): 0.02 mg/kg; ED50 (Mus musculus [15]): 0.04 mg/kg; ED50 (Rattus norvegicus): 0.6 mg/kg |
